{"source": "patent US20240109896A1", "about": "“FGFR KINASE INHIBITOR AND USE THEREOF” (YA THERAPEUTICS INC, priority 2021, published 2024)", "key": {"FGFR2": {"target": "FGFR2 (Homo sapiens, UniProt P21802)", "sequence (P21802 22-821)": "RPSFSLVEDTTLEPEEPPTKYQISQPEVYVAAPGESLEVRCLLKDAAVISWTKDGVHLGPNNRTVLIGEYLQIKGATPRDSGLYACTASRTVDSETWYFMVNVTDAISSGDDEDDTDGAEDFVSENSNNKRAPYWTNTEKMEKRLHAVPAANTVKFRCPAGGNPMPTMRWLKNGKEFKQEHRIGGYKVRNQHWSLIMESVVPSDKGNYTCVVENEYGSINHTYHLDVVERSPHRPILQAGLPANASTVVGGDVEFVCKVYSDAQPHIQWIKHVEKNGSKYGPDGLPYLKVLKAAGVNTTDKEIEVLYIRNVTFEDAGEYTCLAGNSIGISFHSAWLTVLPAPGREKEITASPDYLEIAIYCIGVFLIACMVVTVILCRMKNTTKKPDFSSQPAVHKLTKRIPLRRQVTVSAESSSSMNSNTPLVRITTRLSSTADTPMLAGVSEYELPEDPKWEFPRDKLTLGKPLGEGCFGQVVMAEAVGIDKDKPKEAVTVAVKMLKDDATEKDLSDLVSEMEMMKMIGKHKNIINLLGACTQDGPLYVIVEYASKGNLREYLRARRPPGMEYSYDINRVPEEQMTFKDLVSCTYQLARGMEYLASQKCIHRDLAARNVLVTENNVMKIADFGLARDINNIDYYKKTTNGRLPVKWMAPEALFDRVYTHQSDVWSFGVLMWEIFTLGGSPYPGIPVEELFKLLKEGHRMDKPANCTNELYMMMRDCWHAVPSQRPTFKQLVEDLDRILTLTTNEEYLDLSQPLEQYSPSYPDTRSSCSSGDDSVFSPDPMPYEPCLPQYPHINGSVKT", "assay": "In vitro activity inhibition test for kinase FGFR2", "format": "biochemical", "settings": "kinase assay, 25° C.; read-out: Inhibition of separase IC50 (nM) FGFR2"}, "Hep3B cells": {"tested_on": "Hep3B cells", "assay": "Human hepatoma cell Hep3B survival test (CellTiter-Glo)", "format": "cell-based", "settings": "treated 72 hours, read-out: inhibitory activity on Hep3B cell proliferation IC50", "protocol": "The Hep3B cell line of human liver cancer is derived from ATCC. Cells are supplemented with McCoy's 5A medium and additionally added fetal bovine serum (IOFBS). Cells are kept in the medium at 37° C., humidity at 95%, and carbon dioxide at 500. Hep3B cells were seeded in 96-well plates at a density of 3500 cells per well with a cell suspension volume of 90 μL per well and cultured at 37° C. in a cell culture incubator containing 500 CO2. […] The cells were then placed in a 37° C. incubator and treated with compounds for 72 hours."}, "FGFR1": {"target": "FGFR1 (Homo sapiens, UniProt P11362)", "sequence (P11362 22-822)": "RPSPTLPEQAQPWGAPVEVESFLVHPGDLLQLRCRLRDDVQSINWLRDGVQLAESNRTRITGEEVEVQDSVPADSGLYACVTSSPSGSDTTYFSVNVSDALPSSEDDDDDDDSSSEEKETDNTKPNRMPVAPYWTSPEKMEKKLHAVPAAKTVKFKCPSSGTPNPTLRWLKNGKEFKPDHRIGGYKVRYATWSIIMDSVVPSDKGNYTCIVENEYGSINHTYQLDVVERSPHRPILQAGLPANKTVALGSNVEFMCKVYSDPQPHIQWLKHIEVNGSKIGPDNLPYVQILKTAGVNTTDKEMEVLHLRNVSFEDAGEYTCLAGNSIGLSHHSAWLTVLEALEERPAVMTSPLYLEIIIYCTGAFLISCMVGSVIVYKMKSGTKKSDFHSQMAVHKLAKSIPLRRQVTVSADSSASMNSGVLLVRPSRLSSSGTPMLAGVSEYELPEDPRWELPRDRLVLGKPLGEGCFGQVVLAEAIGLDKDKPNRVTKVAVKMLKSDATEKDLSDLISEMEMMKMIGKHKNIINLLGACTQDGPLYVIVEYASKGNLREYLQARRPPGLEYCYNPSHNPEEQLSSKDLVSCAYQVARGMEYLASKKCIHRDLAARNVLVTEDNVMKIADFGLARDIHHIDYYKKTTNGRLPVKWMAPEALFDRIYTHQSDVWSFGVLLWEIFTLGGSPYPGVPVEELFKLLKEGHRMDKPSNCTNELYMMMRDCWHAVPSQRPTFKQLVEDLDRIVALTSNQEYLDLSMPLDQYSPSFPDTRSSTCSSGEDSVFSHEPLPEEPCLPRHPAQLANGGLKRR", "assay": "In vitro activity inhibition test for kinase FGFR1", "method": "(§1) In Vitro Activity Inhibition Test for Kinases FGFR1, FGFR2, FGFR3 and FGFR4\n(§2) The activity of FGFR1, FGFR2, FGFR3 and FGFR4 protein kinases was determined by Caliper mobility shift assay. Perform a 4-fold gradient dilution from a working concentration of 0.2 mM in DMSO, diluting 10 concentrations. Add 2 μL of compound to 78 μL of 1× compound buffer. There were 10 points each for the negative control and the positive control. Shake the board on the rocker for 20 min. […] The final concentration of DMSO was 0.5%."}, "FGFR3": {"target": "FGFR3 (Homo sapiens, UniProt P22607)", "sequence (P22607 23-806)": "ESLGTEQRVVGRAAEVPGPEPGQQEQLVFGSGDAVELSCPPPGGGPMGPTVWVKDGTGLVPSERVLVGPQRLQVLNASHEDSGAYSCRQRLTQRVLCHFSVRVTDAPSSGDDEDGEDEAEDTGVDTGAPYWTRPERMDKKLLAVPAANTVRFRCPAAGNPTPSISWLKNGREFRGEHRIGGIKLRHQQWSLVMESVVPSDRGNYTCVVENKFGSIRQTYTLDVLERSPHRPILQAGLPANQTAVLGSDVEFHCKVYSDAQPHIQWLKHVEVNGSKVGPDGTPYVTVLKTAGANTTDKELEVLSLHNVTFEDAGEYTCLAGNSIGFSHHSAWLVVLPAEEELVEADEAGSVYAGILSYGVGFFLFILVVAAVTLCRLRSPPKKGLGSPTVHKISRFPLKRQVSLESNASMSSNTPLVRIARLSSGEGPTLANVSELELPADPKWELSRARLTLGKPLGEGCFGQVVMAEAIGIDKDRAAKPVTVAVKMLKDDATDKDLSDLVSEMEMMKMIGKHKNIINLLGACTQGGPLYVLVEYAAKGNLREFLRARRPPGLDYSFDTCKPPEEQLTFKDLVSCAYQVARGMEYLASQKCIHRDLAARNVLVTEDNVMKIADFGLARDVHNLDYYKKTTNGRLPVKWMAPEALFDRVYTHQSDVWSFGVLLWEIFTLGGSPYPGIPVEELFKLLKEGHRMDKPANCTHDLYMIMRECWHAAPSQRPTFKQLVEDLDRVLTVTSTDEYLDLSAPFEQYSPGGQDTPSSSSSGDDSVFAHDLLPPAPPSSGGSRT", "assay": "In vitro activity inhibition test for kinase FGFR3;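 also: FGFR3 kinase activity read by Caliper mobility shift assay, compounds run as 10-point 4-fold dilution series, final DMSO 0.5%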", "method": "as §1, §2"}, "FGFR4": {"target": "FGFR4 (Homo sapiens, UniProt P22455)", "sequence (P22455 22-802)": "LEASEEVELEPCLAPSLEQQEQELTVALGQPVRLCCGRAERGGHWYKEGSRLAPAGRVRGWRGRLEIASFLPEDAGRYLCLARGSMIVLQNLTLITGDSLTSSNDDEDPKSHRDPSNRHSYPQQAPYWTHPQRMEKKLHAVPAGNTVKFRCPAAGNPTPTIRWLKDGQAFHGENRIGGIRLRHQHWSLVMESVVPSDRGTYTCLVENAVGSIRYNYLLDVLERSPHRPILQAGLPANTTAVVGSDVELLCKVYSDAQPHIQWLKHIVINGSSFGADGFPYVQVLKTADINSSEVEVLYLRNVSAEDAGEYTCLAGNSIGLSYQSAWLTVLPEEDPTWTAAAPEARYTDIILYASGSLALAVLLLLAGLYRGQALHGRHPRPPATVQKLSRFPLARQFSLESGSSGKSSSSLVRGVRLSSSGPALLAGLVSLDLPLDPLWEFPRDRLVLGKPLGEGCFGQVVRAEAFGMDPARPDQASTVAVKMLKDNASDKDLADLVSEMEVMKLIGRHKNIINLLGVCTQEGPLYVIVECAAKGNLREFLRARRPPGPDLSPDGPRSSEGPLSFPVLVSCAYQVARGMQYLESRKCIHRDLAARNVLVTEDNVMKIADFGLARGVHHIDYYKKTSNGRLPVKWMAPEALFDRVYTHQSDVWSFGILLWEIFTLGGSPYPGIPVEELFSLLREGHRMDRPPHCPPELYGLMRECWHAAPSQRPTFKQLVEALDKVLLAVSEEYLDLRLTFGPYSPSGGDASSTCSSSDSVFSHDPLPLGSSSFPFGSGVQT", "assay": "In vitro activity inhibition test for kinase FGFR4;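 also: caliper mobility shift assay of FGFR4 kinase activity, compounds tested as 10-point 4-fold dilution series with 0.5% DMSO final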", "method": "as §1, §2"}}, "note": "pIC50: −log10 of the molar value. Like-named read-outs stand apart in the source and are kept apart here."}
{"compound": "C=CC(=O)N1CCC[C@H](n2cc(C#Cc3cc(OC)cc(OC)c3)c3c(N)n[nH]c(=O)c32)C1", "note": "[Compound 20, (S)-1-(1-acryloylpiperidin-3-yl)-4-amino-3-((3,5-dimethoxyphenyl)ethynyl)-1,6-dihydro-7H-pyrrolo[2,3-d]pyridazin-7-one]", "values": [{"measurement": "IC50", "setting": "FGFR2", "result": "< 10", "unit": "nM"}, {"measurement": "pIC50", "setting": "Hep3B cells; Homo sapiens", "result": "> 8.00"}, {"measurement": "pIC50", "setting": "FGFR1", "result": "> 8.00"}, {"measurement": "pIC50", "setting": "FGFR3", "result": "> 8.00"}, {"measurement": "pIC50", "setting": "FGFR4", "result": "> 8.00"}]}
{"compound": "C=CC(=O)N1CC[C@H](n2cc(C#Cc3cc(OC)cc(OC)c3)c3c(N)n[nH]c(=O)c32)C1", "note": "[Compound 22, (S)-1-(1-acryloylpyrrolidin-3-yl)-4-amino-3-((3,5-dimethoxyphenyl)ethynyl)-1,6-dihydro-7H-pyrrolo[2,3-d]pyridazin-7-one]", "values": [{"measurement": "IC50", "setting": "FGFR2", "result": "< 10", "unit": "nM"}, {"measurement": "pIC50", "setting": "Hep3B cells; Homo sapiens", "result": "> 8.00"}, {"measurement": "pIC50", "setting": "FGFR1", "result": "> 8.00"}, {"measurement": "pIC50", "setting": "FGFR3", "result": "> 8.00"}, {"measurement": "pIC50", "setting": "FGFR4", "result": "> 8.00"}]}
{"compound": "C=CC(=O)N1CCC[C@H](n2nc(C#Cc3cc(OC)cc(OC)c3)c3c(N)n[nH]c(=O)c32)C1", "note": "[Compound 24, (S)-1-(1-acryloylpiperidin-3-yl)-4-amino-3-((3,5-dimethoxyphenyl)ethynyl)-1,6-dihydro-7H-pyrazolo[3,4-d]pyridazin-7-one]", "values": [{"measurement": "IC50", "setting": "FGFR2", "result": "< 10", "unit": "nM"}, {"measurement": "pIC50", "setting": "Hep3B cells; Homo sapiens", "result": "> 8.00"}, {"measurement": "pIC50", "setting": "FGFR1", "result": "> 8.00"}, {"measurement": "pIC50", "setting": "FGFR3", "result": "> 8.00"}, {"measurement": "pIC50", "setting": "FGFR4", "result": "> 8.00"}]}
{"compound": "C=CC(=O)N1CC[C@H](n2nc(C#Cc3cc(OC)cc(OC)c3)c3c(N)n[nH]c(=O)c32)C1", "note": "[Compound 26, (S)-1-(1-acryloylpyrrolidin-3-yl)-4-amino-3-((3,5-dimethoxyphenyl)ethynyl)-1,6-dihydro-7H-pyrazolo[3,4-d]pyridazin-7-one]", "values": [{"measurement": "IC50", "setting": "FGFR2", "result": "< 10", "unit": "nM"}, {"measurement": "pIC50", "setting": "Hep3B cells; Homo sapiens", "result": "> 8.00"}, {"measurement": "pIC50", "setting": "FGFR1", "result": "> 8.00"}, {"measurement": "pIC50", "setting": "FGFR3", "result": "> 8.00"}, {"measurement": "pIC50", "setting": "FGFR4", "result": "> 8.00"}]}
{"compound": "C=CC(=O)N1CC[C@H](n2nc(C#Cc3c(Cl)c(OC)cc(OC)c3Cl)c3c(N)n[nH]c(=O)c32)C1", "note": "[Compound 30, (S)-1-(1-acryloylpyrrolidin-3-yl)-4-amino-3-((2,6-dichloro-3,5-dimethoxyphenyl)ethynyl)-1,6-dihydro-7H-pyrazolo[3,4-d]pyridazin-7-one]", "values": [{"measurement": "IC50", "setting": "FGFR2", "result": "< 10", "unit": "nM"}, {"measurement": "pIC50", "setting": "Hep3B cells; Homo sapiens", "result": "> 8.00"}, {"measurement": "pIC50", "setting": "FGFR1", "result": "> 8.00"}, {"measurement": "pIC50", "setting": "FGFR3", "result": "> 8.00"}, {"measurement": "pIC50", "setting": "FGFR4", "result": "> 8.00"}]}
{"compound": "C=CC(=O)N1CC[C@H](n2nc(-c3cc4cc(C)cc(OC)c4s3)c3c(N)n[nH]c(=O)c32)C1", "note": "[Compound 36, (S)-1-(1-acryloylpyrrolidin-3-yl)-4-amino-3-(7-methoxy-5-methylbenzo[b]thiophen-2-yl)-1,6-dihydro-7H-pyrazolo[3,4-d]pyridazin-7-one]", "values": [{"measurement": "IC50", "setting": "FGFR2", "result": "< 10", "unit": "nM"}, {"measurement": "pIC50", "setting": "Hep3B cells; Homo sapiens", "result": "> 8.00"}, {"measurement": "pIC50", "setting": "FGFR1", "result": "> 8.00"}, {"measurement": "pIC50", "setting": "FGFR3", "result": "> 8.00"}, {"measurement": "pIC50", "setting": "FGFR4", "result": "> 8.00"}]}
{"compound": "C=CC(=O)N1CC[C@H](n2cc(-c3cn(C)c4ccccc34)c3c(N)n[nH]c(=O)c32)C1", "note": "[Compound 42, (S)-1-(1-acryloylpyrrolidin-3-yl)-4-amino-3-(1-methyl-1H-indol-3-yl)-1,6-dihydro-7H-pyrrolo[2,3-d]pyridazin-7-one]", "values": [{"measurement": "IC50", "setting": "FGFR2", "result": "< 10", "unit": "nM"}, {"measurement": "pIC50", "setting": "FGFR1", "result": "> 8.00"}, {"measurement": "pIC50", "setting": "FGFR3", "result": "> 8.00"}, {"measurement": "pIC50", "setting": "FGFR4", "result": "> 8.00"}]}
{"compound": "C=CC(=O)N1CC[C@H](n2cc(-c3ccc4ccccc4c3)c3c(N)n[nH]c(=O)c32)C1", "note": "[Compound 43, (S)-1-(1-acryloylpyrrolidin-3-yl)-4-amino-3-(naphthalen-2-yl)-1,6-dihydro-7H-pyrrolo[2,3-d]pyridazin-7-one]", "values": [{"measurement": "IC50", "setting": "FGFR2", "result": "< 10", "unit": "nM"}, {"measurement": "pIC50", "setting": "FGFR1", "result": "> 8.00"}, {"measurement": "pIC50", "setting": "FGFR3", "result": "> 8.00"}, {"measurement": "pIC50", "setting": "FGFR4", "result": "> 8.00"}]}
{"compound": "(S)-4-amino-1-(1-(but-2-ynoyl)pyrrolidin-3-yl)-3-((2,6-difluoro-3,5-dimethoxyphenyl)ethynyl)-1,6-dihydro-7H-pyrazolo[3,4-d]pyridazin-7-one [Compound 29]", "values": [{"measurement": "IC50", "setting": "FGFR2", "result": "< 10", "unit": "nM"}, {"measurement": "IC50", "setting": "FGFR1; read-out: Inhibition of FGFR1 IC50 (nM) FGFR1, kinase assay, 25° C.", "result": "< 10", "unit": "nM"}, {"measurement": "IC50", "setting": "FGFR3; read-out: Inhibition IC50 (nM) FGFR3, kinase assay, 25° C.", "result": "< 10", "unit": "nM"}, {"measurement": "IC50", "setting": "FGFR4; read-out: Inhibition of kinase IC50 (nM) FGFR4, kinase assay, 25° C.", "result": "< 10", "unit": "nM"}]}
{"compound": "(S)-4-amino-1-(1-(but-2-ynoyl)pyrrolidin-3-yl)-3-((2,6-difluoro-3,5-dimethoxyphenyl)ethynyl)-1,6-dihydro-7H-pyrazolo[3,4-d]pyridazin-7-one [Compound 34]", "values": [{"measurement": "pIC50", "setting": "Hep3B cells", "result": "> 8.00"}]}
